Values joined by “and” are separate entries in the source; they are usually repeats but may differ in a detail not shown here. Identical values can stand only once.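 Step 1: Grow cells in 96-well plates. Step 2: Expose to compound for 48 hours at 5 concentrations. Step 3: Interpolate endpoints linearly; if unreached, use highest concentration. GI50: concentration for 50% inhibition of growth. The concentration for full growth arrest is given as TGI.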
What was measured:
Test in all cases: inhibition of tumour cell growth, NCI panel, 48 h
[1] = test system: CAKI-1 renal
[2] = test system: DMS 114 small cell lung
[3] = test system: HOP-62 NSCLC
[4] = test system: HOP-92 NSCLC
[5] = test system: KM12 colon
[6] = test system: NCI-H226 lung
[7] = test system: SN12C renal
[8] = test system: UO-31 renal
[9] = test system: EKVX NSCLC
[10] = test system: T-47D breast
[11] = test system: KM20L2 colon

Structure (SMILES)	TGI [1] [µM]	TGI [2] [µM]	TGI [3] [µM]	TGI [4] [µM]	TGI [5] [µM]	TGI [6] [µM]	TGI [7] [µM]	TGI [8] [µM]	TGI [9] [µM]	TGI [10] [µM]	TGI [11] [µM]	GI50 [6]
CC(C)C(N)=O	> 5000	> 5000	> 5000	> 5000	> 5000	> 5000	> 5000	> 5000	–	–	–	–
CCOP(=O)(OCC)C(C#N)Cc1ccco1 (stereo not drawn)	> 10	–	> 10	> 10	> 10	> 10	> 10	> 10	> 10	> 10	–	–
C=C1C(=O)O[C@@H]2C=C(C)C3=CC(=O)[C@](C)(C[C@H](OC(=O)/C(C)=C\C)[C@@H]12)O3	1.38	–	10.5	2.18	2.99	4.99	5.1	2.37	8.78	3.81	–	–
O=C1CCCCCCCCCCC1CN1CCCCC1 (stereo not drawn)	–	> 100	> 100	–	> 100	82.4	> 100	> 100	> 100	–	> 100	–
O=C(N/N=C1/C(=O)c2c3ccccc3cc3cccc1c23)c1ccccc1	70.1	–	40.3	> 100	> 31.6	> 66.6	> 100	> 100	> 100	42	–	–
N#Cc1c(-c2ccccc2)[nH]c(=O)n(C2OC(CO)C(O)C(O)C2O)c1=O (stereo not drawn)	> 100	–	> 100	> 100	> 100	> 100	> 100	> 100	> 100	> 100	–	> 100 µM and 45.4 µM
CCCCCCCCCCCCOCCCOP(=O)([O-])OCC[N+](C)(C)C	47.5	–	> 100	52.8	9.77	65.8	> 76.7	> 89.5	> 100	38	> 100	–
Oc1ccc(Cl)cc1CN1CCN(Cc2cc(Cl)ccc2O)C1	6.48	–	2.79	5.15	3.49	4.66	5.19	2.19	6.09	10.9	–	–
COC(=O)c1cnc(Cl)cn1	37.5	–	> 100	> 100	> 100	> 100	> 100	36.9	> 100	> 100	–	–
COc1ccc2cc(CN3CCC(C4CCNCC4)CC3)ccc2c1	6.03	–	8.98	5.75	5.25	29.2	23	6.29	21.2	5.23	–	–
Cc1ccc(/C=N/Nc2ccc3ccccc3n2)s1	> 100	–	41.1	78.3	> 100	> 100	28.4	> 100	32.2	> 100	–	–
Cc1cc(S(=O)(=O)Nc2nc(N)nc(N(C)C)n2)c(SCC(=O)O)cc1Cl	> 10	–	> 10	> 10	> 10	> 10	> 10	> 10	> 10	> 10	–	–
CCOC(=O)C(NC(=O)c1ccccc1)(N1CCOCC1)C(F)(F)F (stereo not drawn)	> 100	–	> 100	> 100	> 100	> 100	> 100	> 100	> 100	> 100	–	–
CCOC(=O)CC(=O)Nc1cccc2[nH]cnc12	> 100	–	> 100	> 100	> 100	> 100	> 100	> 100	> 100	> 100	–	–
COc1ccc(N2C=Nn3c(nc4sc5c(c4c3=O)CCCC5)C2)cc1	> 100	–	13.5	41.8	> 100	> 100	> 100	> 100	> 100	> 100	–	–
Cc1ccc(NC(=O)CSc2nc(=O)[nH]c3nc[nH]c23)cc1	> 100	–	> 100	> 100	> 100	> 100	> 100	> 100	> 100	> 100	–	–
COc1ccc(OC)c(NS(=O)(=O)c2ccc3nc(C)n(NS(=O)(=O)c4cc(OC)ccc4OC)c(=O)c3c2)c1	> 100	–	> 100	> 100	> 100	> 100	> 100	> 100	> 100	> 100	–	–

From PubChem BioAssay (NCI)
